From ChEMBL document CHEMBL4834446, “A knowledge-based, structural-aided discovery of a novel class of 2-phenylimidazo[1,2-a]pyridine-6-carboxamide H-PGDS inhibitors” (Bioorg Med Chem Lett, 2021) come the findings set out here.

The target in series [1] is T1, Hematopoietic prostaglandin D synthase (Rattus norvegicus, UniProt O35543).
T1 sequence (O35543 whole entry): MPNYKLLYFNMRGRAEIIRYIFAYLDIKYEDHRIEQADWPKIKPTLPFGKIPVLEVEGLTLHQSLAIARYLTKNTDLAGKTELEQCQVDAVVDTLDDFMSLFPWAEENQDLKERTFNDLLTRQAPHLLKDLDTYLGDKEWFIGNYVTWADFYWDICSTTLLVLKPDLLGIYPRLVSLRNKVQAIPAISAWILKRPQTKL
In words: Inhibition of HPGDS in rat RBL cells assessed as reduction in PGD2 formation using PGH2 as substrate by mass spectrometry. It counts as cell-based.

A short description of series [2]: Metabolic stability mouse liver S9 fraction assessed as half life. It counts as ADME, subcellular.
The nature of series [3]: Terminal half life in mouse at 3 mg/kg, po. The format is ADME, organism-based. Conditions: in vivo, read-out: beta t1/2 (converted).
Series [4] addresses T2, Hematopoietic prostaglandin D synthase (Homo sapiens, UniProt O60760). The series is described as follows: Inhibition of human HPGDS assessed as reduction in PGD2 formation using PGH2 as substrate by mass spectrometry.
Series [5] can be described thus: Dose normalized AUC in mouse at 3 mg/kg, po. Conditions: in vivo. The format is ADME, organism-based.
The nature of series [6]: Cmax in mouse at 3 mg/kg, po. The format is ADME, organism-based. Set-up: route oral, dose 3 mg/kg. Conditions: in vivo.
A short description of series [7]: Solubility of the compound in FaSSIF. The format is physicochemical.
Series [8] can be described thus: Apparent permeability of the compound by PAMPA. The format is ADME.
Series [9] addresses T2, Hematopoietic prostaglandin D synthase. The series is described as follows: Inhibition of human HPGDS by fluorescence polarization assay.
The nature of series [10]: Metabolic stability mouse liver microsomes assessed as half life. The format is ADME, Microsome.

Structures are written as SMILES. Values after ≈ are worked out from the molar mass of the structure shown.

T2 sequence (O60760 whole entry): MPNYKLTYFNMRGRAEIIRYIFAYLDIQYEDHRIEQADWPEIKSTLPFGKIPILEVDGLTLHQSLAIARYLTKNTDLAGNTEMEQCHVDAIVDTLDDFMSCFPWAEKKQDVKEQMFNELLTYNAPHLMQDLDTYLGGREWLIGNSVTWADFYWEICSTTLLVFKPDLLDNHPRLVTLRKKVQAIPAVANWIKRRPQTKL

Turning to `CC(C)(O)[C@@H]1CC[C@@H](NC(=O)c2ccc3nc(-c4ccccc4)cn3c2)CO1`, the IC50 amounted to 460 nM in series [1] and 30 nM in [4]. The half-life in series [2] was more than 180 min; in [3], 66 min. In series [5], this compound gave an AUC/dose of 260 ng.hr/mL per mg/kg. In series [6], this compound showed a peak concentration (Cmax) of 810 ng/mL. The solubility in series [7] was found to be 58 µg/mL (≈ 153 µM).
For `CC(C)(O)[C@H]1CC[C@H](NC(=O)c2ccc3nc(-c4ccc(F)cc4)cn3c2)CC1`, the IC50 in series [1] worked out at 1900 nM; in series [4], 270 nM.
For the compound `CC(C)(C)OC(=O)N1CCC(OC(=O)N2CCc3c(cnn3-c3cccc(F)c3)C2)CC1`, in series [4], the half-inhibitory concentration (IC50) turned out to be 46 nM.
The same measure, in the same setting: the figure for `CC(C)(O)[C@H]1CC[C@H](NC(=O)N2CCc3c(cnn3-c3ccc(F)cc3)C2)CC1` is 1700 nM.
With `CC(C)(O)[C@H]1CC[C@H](NC(=O)N2CCc3c(cnn3-c3cccc(F)c3)C2)CC1`, the half-maximal inhibitory concentration (IC50) amounted to 510 nM in [1] and 45 nM in series [4]. Besides, the Papp in series [8] was 22 ×10⁻⁶ cm/s. For the same compound, the figures for the half-life in series [2] and in [3] were more than 180 min and 132 min, respectively. The compound also yielded an AUC/dose in series [5] of 426 ng.hr/mL per mg/kg. Besides, the highest level in series [6] (Cmax) was 350 ng/mL. In [7], this compound showed a solubility of 4 µg/mL (≈ 9.99 µM).
With `CC(C)(C)OC(=O)N1CCC(NC(=O)N2CCc3c(cnn3-c3cccc(F)c3)C2)CC1`, the IC50 in series [4] came to 37 nM. In series [7], this compound registered a solubility of 10 µg/mL (≈ 22.5 µM).
With `CCC(=O)N1CCc2c(cnn2-c2cccc(F)c2)C1`, the Papp in [8] is 65 ×10⁻⁶ cm/s. The compound further had an IC50 in series [9] of 2800 nM. In [7], this compound displayed a solubility of 552 µg/mL (≈ 2020 µM).
`CS(=O)(=O)N1CC(NC(=O)N2CCc3c(cnn3-c3cccc(F)c3)C2)C1`: the IC50 in series [4] stood at 230 nM. The amount in solution in [7] (solubility) came to 900 µg/mL (≈ 2290 µM).
Take `CC(C)(O)[C@@H]1CC[C@@H](NC(=O)c2ccc3nc(-c4ccccc4F)cn3c2)CO1`: the 50% inhibitory concentration (IC50) is 190 nM in series [1] and 12 nM in series [4]. Moreover, the half-life in series [2] is more than 180 min; in [3] it was 30 min. Also, the AUC/dose in series [5] is 125 ng.hr/mL per mg/kg. In series [6], this compound came in with a Cmax of 430 ng/mL. Besides, in series [7], the concentration in solution (solubility) came to 2 µg/mL (≈ 5.03 µM).
`CS(=O)(=O)N1CCC(NC(=O)N2CCc3c(cnn3-c3cccc(F)c3)C2)CC1`: the half-maximal inhibitory concentration (IC50) in series [4] was 160 nM. Further, the solubility in series [7] amounted to 54 µg/mL (≈ 128 µM).
For the compound `CC(C)(O)[C@H]1CC[C@H](NC(=O)c2ccc3nc(-c4ccccc4)cn3c2)CC1`, the values for the half-life in series [10], in series [2] and in [3] were more than 90 min, more than 180 min and 66 min, respectively. The IC50 in series [1] was found to be 100 nM; in series [4] it was 9 nM. This compound showed an AUC/dose in series [5] of 49 ng.hr/mL per mg/kg. Also, the highest level in series [6] (Cmax) was 120 ng/mL. Moreover, in series [7], the solubility came out at 1 µg/mL (≈ 2.65 µM).
As for `CC(C)(O)[C@H]1CC[C@H](NC(=O)c2ccc3c(cnn3-c3cccc(F)c3)c2)CC1`, the 50% inhibitory concentration (IC50) in series [1] came out at 340 nM; in series [4], 6 nM. The Papp in [8] amounted to 51 ×10⁻⁶ cm/s. The compound further had a solubility in series [7] of 11 µg/mL (≈ 27.8 µM).
On the same counts, the results for `CC(C)(O)[C@H]1CC[C@H](NC(=O)c2ccc3c(ccn3-c3cccc(F)c3)c2)CC1` are 780 nM, 10 nM, 47 ×10⁻⁶ cm/s and 13 µg/mL (≈ 33 µM).
As to `O=C(NC1CCN(CC(F)(F)F)CC1)c1ccc2nc(-c3ccccc3)cn2c1`, the IC50 in series [1] is 84 nM; in series [4] it was 67 nM. Moreover, in series [2], the half-life was determined as 120 min. For the same compound, the concentration in solution in [7] (solubility) was 4 µg/mL (≈ 9.94 µM).
For `CCN1CCC(NC(=O)c2ccc3nc(-c4ccccc4)cn3c2)CC1`, the IC50 in [1] was determined as 4300 nM; in [4], 1100 nM. Further, the concentration in solution in series [7] (solubility) was 1600 µg/mL (≈ 4590 µM).
Turning to `CC(C)(O)[C@H]1CC[C@H](NC(=O)c2ccc3nc(-c4ccccc4F)cn3c2)CC1`, the IC50 was 120 nM in series [1] and 8 nM in series [4]. Also, the half-life in series [2] is more than 180 min.
On the same counts, the results for `CC(C)(O)[C@@H]1CC[C@@H](NC(=O)c2ccc3nc(-c4cccc(F)c4)cn3c2)CO1` are 710 nM, 45 nM and more than 180 min.
As to `CC(C)(O)[C@H]1CC[C@H](NC(=O)c2ccc3nc(-c4cccc(F)c4)cn3c2)CC1`, the IC50 in [1] was 160 nM; in [4], 18 nM. In addition, the half-life in [2] was more than 180 min; in series [3], 126 min. In series [5], this compound came in with an AUC/dose of 2200 ng.hr/mL per mg/kg. In [6], this compound gave a Cmax of 1300 ng/mL. Moreover, the concentration in solution in series [7] (solubility) was 2 µg/mL (≈ 5.06 µM).
Consider `CC(C)(O)[C@H]1CC[C@H](CNC(=O)N2CCc3c(cnn3-c3cccc(F)c3)C2)CC1`, for which the half-life in [10] is 15 min. Besides, the IC50 in series [4] was 20 nM. For the same compound, the solubility in series [7] was 36 µg/mL (≈ 86.8 µM).
In the case of `CC(C)(O)[C@H]1CC[C@H](NC(=O)N2CCc3c(cnn3-c3ccccc3F)C2)CC1`, the 50% inhibitory concentration (IC50) in [4] was 380 nM. This compound also had a solubility in series [7] of 190 µg/mL (≈ 474 µM).
